The record followed here is patent publication US10105378B2, “Enrichment methods for preparing tannic acid compositions” (SyneuRx International (Taiwan) Corp., priority 2016, dated 2018).

The target of assay [1] is D-amino acid oxidase (DAAO) (UniProt P14920).
Experimental: The activity of DAAO was determined in vitro by measuring the inhibition of the catabolism of known substrate, D-proline. The cofactor FAD (40 ? M) was added to the DAAO stock solution first. For the assay, potential inhibitors of tannic acid(s) were mixed with reaction mixture containing phosphate buffered saline (137 mM NaCl, 3 mM KCl, 10 mM Na2HPO4, 2 mM NaH2PO4, pH 7.4), horseradish peroxidase (5 U/ml), o-phenylendiamine (OPD, 0.03%), and 0.6 μg human-(or porcine-) DAAO, and incubated for about 5 min. After the pre-incubation period, 40 mM D-proline were added as substrate and the reaction continued for 10 min. OPD was oxidized to form 2,3-diaminophenazine (DAP) by horseradish peroxidase. The absorbance of DAP was measured at 453 nm by a spectrophotometry. Assay was done in serial dilutions of the inhibitors to generate IC50 and analyzed by Prism (Graphpad Software). In the analysis, the spectrophotometry readings were fit to a standard equation to determine the concentration of 50% inhibition (IC50). All enzymatic assays were conducted at room temperature in 96-well plate format.
The DAAO inhibitory activities of subgroups of tannic acids (having a particular number of galloyl moieties) were determined as follows.
Assay [2] concerns MK-801 treated mice. The assay can be described thus: Prepulse inhibition in MK-801 treated mice (Example 9). Format: in vivo, C57BL/6J male mice. The note with it: MK-801 0.3 mg/kg i.p. alone. The method, then:
Each mouse in Groups 2-4 received an acute administration of 0.3 mg/kg MK-801 (Sigma-Aldrich, USA) dissolved in normal saline by i.p. injection 20 minutes prior to the prepulse inhibitin test. Each mouse in Groups 3-4 received an acute oral administration of 50 or 200 mg/kg Enrichment #10 tannic acids dissolved in ddH2O by p.o. 20 minutes prior to the MK-801 administration.
Prepulse inhibition was used as an index of sensorimotor gating function using SR-LAB startle apparatus (San Diego Instruments, San Diego, Calif., USA). Under 65 dB background noise, each session was composed of 5 minutes accumulation period followed by 64 trials in four blocks. The pulse alone (PA) trial was a 40 ms, 120 dB white noise burst. In the prepulse (pp)+pulse trials, a 20 ms white noise prepulse stimuli of 71 dB (pp6), 75 dB (pp10), and 83 dB (pp18) were presented 100 ms before a 40 ms 120 dB pulse. The non-stimulus (NS) trials presented the background noise only. The initial and the last blocks were composed of six PA trials, respectively. Two middle blocks consisted of PA, pp+pulse, and NS trials. […] The percentage of prepulse inhibition was evaluated by the following formula: % PPI=100×[(PA score)−(pp−P score)]/(PA score), where the PA score was the average of the PA value in the middle blocks

Assay [3] concerns MK-801 treated mice. The assay can be described thus: Sucrose preference (anhedonia) in MK-801 treated mice. The class given is in vivo, C57BL/6J male mice. The conditions noted are these: MK-801 0.2 mg/kg i.p. alone. The method, then: (§1) Each mouse in Groups 2-5 received an acute administration of MK-801 (Sigma-Aldrich, USA) dissolved in normal saline, 0.1 mg/kg for open field and Barnes maze tasks, and 0.2 mg/kg for prepulse inhibition and sucrose preference tasks by i.p. injection) 20 minutes prior to the behavioral tests. Each mouse in Groups 3-6 received an acute oral administration of tannic acids (Merck Millipore, Germany; dissolved in PBS, 10, 30, or 100 mg/kg, p.o.) 20 minutes prior to the MK-801 administration.
Sucrose preference test has been commonly examined in mouse models of several mental illnesses, including, but not limited to, depression, major depression disorder, anhedonia, negative symptoms of schizophrenia, chronic mild and unpredictable stress (see Anderson et al., 2006; Carvalho et al., 2013; Briones et al., 2011; Der-Avakian and Markou, 2012; Tye et al., 2013; Edwards and Koob, 2012; Brigman et al., 2010; Koo and Duman, 2007; Nestler and Hyman, 2010; Overstreet, 2012; Papp et al., 1991; Santiago et al., 2010; Skalisz et al., 2002; Szczypka et al., 2001; Taylor et al., 2010; Vardigan et al., 2010; Willner et al., 1987; You et al., 2011).

Assay [4] relates to MK-801 treated mice. In words: Open field locomotion in MK-801 treated mice (Example 9). The note with it: MK-801 0.2 mg/kg i.p. alone. The class given is in vivo, C57BL/6J male mice. The method, then: Each mouse in Groups 2-5 received an acute administration of 0.2 mg/kg MK-801 (Sigma-Aldrich, USA) dissolved in normal saline by i.p. injection 20 minutes prior to the locomotion activity test. Each mouse in Groups 3-6 received an acute oral administration of 50 mg/kg tannic acids dissolved in ddH2O by p.o. 20 minutes prior to the MK-801 administration. Tannic acid purchased from Merch Millipore (Merck TA) and from Wufeng Chicheng Biotech (CCBiotech TA), and tannic acid from Enrichment method 10 (Enrichment #10) at 50 mg/kg were used in this study.
The open field task is a common measurement of novelty induced exploratory behavior and general activity in both mice and rats. In this study, the mice were placed in a PLEXIGLAS® cage (37.5 cm×21.5 cm×18 cm) under 50-65 lux light intensity. Their spontaneous locomotor activities were measured for 30 minutes using the SMART video tracking system (Panlab, Harvard Apparatus). The travel distance of each mouse was measured as an index of locomotion activity.

In assay [5] the test system is MK-801 treated mice. The assay can be described thus: Open field locomotion in MK-801 treated mice (Examples 3, 4). The class given is in vivo, C57BL/6J male mice. The note with it: MK-801 0.1 mg/kg i.p. alone. The procedure:
(§2) Each mouse in Groups 2-6 received an acute administration of MK-801 (Sigma-Aldrich, USA) dissolved in normal saline, 0.1 mg/kg, i.p.) 20 minutes prior to the behavioral tests. Each mouse in Groups 3-6 received an acute administration of tannic acids (Sigma-Aldrich, USA; dissolved in PBS, 10, 15, 20 or 30 mg/kg, i.p.) 20 minutes prior to the MK-801 administration.
All mice in this study were tested with open field task and prepulse inhibition task with at least 1-week interval between two tasks. An additional cohort of mice was used to test the effect of different sources of tannic acid on prepulse inhibition.
as §1
In this test, tannic acids were administered orally 20 minutes before the MK-801 (0.1 mg/kg) injection.

Assay [6] has as its system MK-801 treated mice. The assay can be described thus: Prepulse inhibition in MK-801 treated mice (Examples 3, 4). Format: in vivo, C57BL/6J male mice. The note with it: MK-801 0.2 mg/kg i.p. alone. The method, then:
as §2
Prepulse inhibition was used as an index of sensorimotor gating function using SR-LAB startle apparatus (San Diego Instruments, San Diego, Calif., USA). Under 72 dB background noise, each session was composed of 5 minutes accumulation period followed by 64 trials in four blocks. The pulse alone (PA) trial was a 40 ms, 120 dB white noise burst. In the prepulse (pp)+pulse trials, a 20 ms white noise prepulse stimuli of 78 dB (pp6), 82 dB (pp10), and 90 dB (pp18) were presented 100 ms before a 40 ms 120 dB pulse. The non-stimulus (NS) trials presented the background noise only. The initial and the last blocks were composed of six PA trials, respectively. Two middle blocks consisted of PA, pp+pulse, and NS trials. […] The percentage of prepulse inhibition was evaluated by the following formula: % PPI=100×[(PA score)−(pp−P score)]/(PA score), where the PA score was the average of the PA value in the middle blocks. […]

For the molecule `O=C(OC[C@H]1OC(OC(=O)c2cc(O)c(O)c(OC(=O)c3cc(O)c(O)c(O)c3)c2)[C@H](OC(=O)c2cc(O)c(O)c(OC(=O)c3cc(O)c(O)c(O)c3)c2)[C@@H](OC(=O)c2cc(O)c(O)c(OC(=O)c3cc(O)c(O)c(O)c3)c2)[C@@H]1OC(=O)c1cc(O)c(O)c(OC(=O)c2cc(O)c(O)c(O)c2)c1)c1cc(O)c(O)c(OC(=O)c2cc(O)c(O)c(O)c2)c1` (some centres unmarked) [10G], the IC50 (as a rule, the concentration that gives 50% inhibition) in assay [1] (read-out: IC50 (μM), potency of individual tannic acids, Table 4) was found to be 0.215 µM. In addition, the “Relative DAAO activity (%)” value in assay [1] (samples at 300 nM) worked out at 19.25%.
On to `C[C@]12N[C@H](Cc3ccccc31)c1ccccc12` [MK-801], for which the entries for the “prepulse inhibition vs control group” value in the assay on MK-801 treated mice [2] and with MK-801 treated mice [6] were “induced robust prepulse inhibition deficits in all prepulse intensities” and “induced robust prepulse inhibition deficits”, respectively. The “preference toward the sucrose solution (2%)” value in the assay with MK-801 treated mice [3] is reported as “did not show the preference toward the sucrose solution”. In addition, the “locomotion activity vs control group” value in the assay on MK-801 treated mice [4] and in the assay on MK-801 treated mice [5] (Example 3) was “hyper-locomotion activity” each time. For the same molecule, the locomotion entry in the assay on MK-801 treated mice [5] (Example 4) is on record as “induced hyper-locomotion”.
